This experiment deals with T1, PE-labeled human PD-L1-Ig binding to Jurkat cell line over-expressing human PD-1 (Jurkat-PD-1) (Homo sapiens, UniProt Q15116).
T1 construct: expressed in transfected cells; host or cells: Jurkat
The experiment in a line: Jurkat-PD-1 Cell Binding High-Content Screening Assay (CBA): Method 1. To be noted: Jurkat-hPD-1 cells, PE-labeled PD-L1-Ig 20 nM final; read-out: Jurkat HPDL1 PD1 IC50 (uM) (Method 1).

Numbered stars: 1 amine (or outer) side, 2 acyl side, 3 side chain; on linkers, the order of the positions; unused ones are H or OH. Bridge positions count the residues as written; N and C are the ends. Square brackets hold non-standard residues; d marks the D form. Peptide text beside a SMILES is read from it. * marks the point of attachment. ξ: configuration not given here. X35 = O=C([C@H](Cc1ccc(-c2cccc(F)c2)cc1)N[*:1])[*:2]; Phe(4-COOH) = N[C@@H](Cc1ccc(C(=O)O)cc1)C(=O)O; Bip = N[C@@H](Cc1ccc(-c2ccccc2)cc1)C(=O)O; Phe(3-CN) = N#Cc1cccc(C[C@H](N)C(=O)O)c1; Phe(3-Me) = Cc1cccc(C[C@H](N)C(=O)O)c1; Phe(4-I) = N[C@@H](Cc1ccc(I)cc1)C(=O)O; Bta = N[C@@H](Cc1csc2ccccc12)C(=O)O; Val(3-OH) = CC(C)(O)[C@H](N)C(=O)O; 4Pal = N[C@@H](Cc1ccncc1)C(=O)O; Cha = N[C@@H](CC1CCCCC1)C(=O)O; Cit = NC(=O)NCCC[C@H](N)C(=O)O; Ile(3ξ) = CCC(C)[C@H](N)C(=O)O; Carboxymethyl = O=C(O)C*; NMeA = CN[C@@H](C)C(=O)O; Orn = NCCC[C@H](N)C(=O)O; Dab = NCC[C@H](N)C(=O)O; Dap = NC[C@H](N)C(=O)O; Piv = CC(C)(C)C(=O)*; Propargyl = C#CC*; Allyl = C=CC*

T1 sequence (Q15116 25-288): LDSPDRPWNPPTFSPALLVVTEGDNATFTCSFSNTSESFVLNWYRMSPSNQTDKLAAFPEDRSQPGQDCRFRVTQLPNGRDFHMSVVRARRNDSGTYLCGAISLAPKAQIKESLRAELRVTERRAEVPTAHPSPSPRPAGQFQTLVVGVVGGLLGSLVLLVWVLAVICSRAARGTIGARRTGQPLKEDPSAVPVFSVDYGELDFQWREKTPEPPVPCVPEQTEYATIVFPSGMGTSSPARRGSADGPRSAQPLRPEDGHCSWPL

In the case of `Cc1cccc(C[C@@H]2NC(=O)[C@H](CC(=O)O)NC(=O)[C@H](Cc3ccc(OCC(=O)O)cc3)NC(=O)[C@H](Cc3ccncc3)NC(=O)CSC[C@@H](C(=O)N[C@@H](CCNC(=O)C(C)(C)C)C(N)=O)NC(=O)[C@H](Cc3cnc[nH]3)NC(=O)[C@H](C(C)(C)O)NC(=O)[C@H](CC3CCCCC3)NC(=O)[C@H](CCN)NC(=O)[C@@H](CC(C)C)NC(=O)[C@H](C)N(C)C(=O)[C@H](Cc3ccc(OCC(=O)O)cc3)NC(=O)[C@H](Cc3ccc(-c4ccccc4)cc3)NC(=O)[C@H](Cc3ccc(C(=O)O)cc3)NC2=O)c1` [Compound 2165] ({CH2CO}-[4Pal]Y(Carboxymethyl)D[Phe(3-Me)][Phe(4-COOH)][Bip]Y(Carboxymethyl)[NMeA][dL][Dab][Cha][Val(3-OH)]HC[Dab](Piv)-NH2; thioether N-14), the half-maximal inhibitory concentration (IC50) amounted to 0.04 µM.

For `CC(C)C[C@H]1NC(=O)[C@H](C)N(C)C(=O)[C@H](CCCNC(N)=O)NC(=O)[C@H](Cc2ccc(-c3ccccc3)cc2)NC(=O)[C@H](C(C)C)NC(=O)[C@H](Cc2c[nH]c3ccccc23)NC(=O)[C@H](CC(=O)O)NC(=O)[C@H](Cc2ccc(O)cc2)NC(=O)[C@H](CC(N)=O)NC(=O)CSC[C@@H](C(=O)N[C@@H](C)C(N)=O)NC(=O)[C@H]([C@@H](C)O)NC(=O)[C@H](C(C)C)NC(=O)[C@H](CC2CCCCC2)NC(=O)[C@H](CCN)NC1=O` [Compound 1287] ({CH2CO}-NYDWV[Bip][Cit][NMeA][dL][Dab][Cha]VTCA-NH2; thioether N-14), the 50% inhibitory concentration (IC50) was 0.01 µM.

Turning to `CC(C)C[C@@H]1NC(=O)[C@H](CCCN)NC(=O)[C@@H](CC(C)C)NC(=O)[C@H](C)N(C)C(=O)[C@H](CCCNC(=N)N)NC(=O)[C@H](Cc2ccc(-c3ccccc3)cc2)NC(=O)[C@H](C(C)C)NC(=O)[C@H](Cc2c[nH]c3ccccc23)NC(=O)[C@H](CC(=O)O)NC(=O)[C@H](Cc2ccc(OCC(=O)O)cc2)NC(=O)[C@H](Cc2cnc[nH]2)NC(=O)CSC[C@@H](C(=O)N[C@@H](C)C(N)=O)NC(=O)[C@H]([C@@H](C)O)NC(=O)[C@H](C(C)C)NC1=O` [Compound 1148] ({CH2CO}-HY(Carboxymethyl)DWV[Bip]R[NMeA][dL][Orn]LVTCA-NH2; thioether N-14), the IC50 stood at 0.05 µM.

As to `CC(C)C[C@@H]1NC(=O)[C@H](CCCN)NC(=O)[C@@H](CC(C)C)NC(=O)[C@H](C)N(C)C(=O)[C@H](CCC(=O)O)NC(=O)[C@H](Cc2ccc(-c3ccccc3)cc2)NC(=O)[C@H](C(C)C)NC(=O)[C@H](Cc2c[nH]c3ccccc23)NC(=O)[C@H](CC(=O)O)NC(=O)[C@H](Cc2ccc(O)cc2)NC(=O)[C@H](CC(N)=O)NC(=O)CSC[C@@H](C(=O)N[C@@H](C)C(N)=O)NC(=O)[C@H](CO)NC(=O)[C@H](C(C)C)NC1=O` [Compound 1240] ({CH2CO}-NYDWV[Bip]E[NMeA][dL][Orn]LVSCA-NH2; thioether N-14), the concentration for half-maximal inhibition (IC50) came to 0.04 µM.

On to `C#CCOc1ccc(C[C@@H]2NC(=O)[C@H](CC(N)=O)NC(=O)CSC[C@@H](C(=O)N[C@@H](C)C(N)=O)NC(=O)[C@H]([C@@H](C)O)NC(=O)[C@H](C(C)C)NC(=O)[C@H](CC(C)C)NC(=O)[C@H](CCN)NC(=O)[C@@H](CC(C)C)NC(=O)[C@H](C)N(C)C(=O)[C@H](CCCNC(=N)N)NC(=O)[C@H](Cc3ccc(-c4ccccc4)cc3)NC(=O)[C@H](C(C)C)NC(=O)[C@H](Cc3c[nH]c4ccccc34)NC(=O)[C@H](CC(=O)O)NC2=O)cc1` [Compound 1208] ({CH2CO}-NY(Propargyl)DWV[Bip]R[NMeA][dL][Dab]LVTCA-NH2; thioether N-14), for which the IC50 is 0.14 µM.

Take `CC(C)C[C@@H]1NC(=O)[C@H](CCN)NC(=O)[C@@H](CC(C)C)NC(=O)[C@H](C)N(C)C(=O)[C@H](CCCNC(=N)N)NC(=O)[C@H](Cc2ccc(-c3ccccc3)cc2)NC(=O)[C@H](C(C)C)NC(=O)[C@H](Cc2cccc(C#N)c2)NC(=O)[C@H](CC(=O)O)NC(=O)[C@H](Cc2ccc(C(=O)O)cc2)NC(=O)[C@H](CN)NC(=O)CSC[C@@H](C(=O)N[C@@H](C)C(N)=O)NC(=O)[C@H]([C@@H](C)O)NC(=O)[C@H](C(C)C)NC1=O` [Compound 1461] ({CH2CO}-[Dap][Phe(4-COOH)]D[Phe(3-CN)]V[Bip]R[NMeA][dL][Dab]LVTCA-NH2; thioether N-14): the IC50 turned out to be 0.23 µM.

For the compound `Cc1cccc(C[C@@H]2NC(=O)[C@H](CC(=O)O)NC(=O)[C@H](Cc3ccc(O)cc3)NC(=O)[C@H](CC(N)=O)NC(=O)CSC[C@@H](C(=O)N[C@@H](CCN)C(N)=O)NC(=O)[C@H](CCC(=O)O)NC(=O)[C@H](C(C)(C)O)NC(=O)[C@H](CC3CCCCC3)NC(=O)[C@H](CCN)NC(=O)[C@@H](CC(C)C)NC(=O)[C@H](C)N(C)C(=O)[C@H](CCCNC(N)=O)NC(=O)[C@H](Cc3ccc(-c4ccccc4)cc3)NC(=O)[C@H](C(C)(C)O)NC2=O)c1` [Compound 1711] ({CH2CO}-NYD[Phe(3-Me)][Val(3-OH)][Bip][Cit][NMeA][dL][Dab][Cha][Val(3-OH)]EC[Dab]-NH2; thioether N-14), the concentration for half-maximal inhibition (IC50) was 0.06 µM.

`CC(C)C[C@@H]1NC(=O)[C@H](CCN)NC(=O)[C@@H](CC(C)C)NC(=O)[C@H](C)N(C)C(=O)[C@H](CCCNC(N)=O)NC(=O)[C@H](Cc2ccc(-c3ccccc3)cc2)NC(=O)[C@H](C(C)C)NC(=O)[C@H](Cc2c[nH]c3ccccc23)NC(=O)[C@H](CC(=O)O)NC(=O)[C@H](Cc2ccc(O)cc2)NC(=O)[C@H](CCCN)NC(=O)CSC[C@@H](C(=O)N[C@@H](C)C(N)=O)NC(=O)[C@H]([C@@H](C)O)NC(=O)[C@H](C(C)C)NC1=O` [Compound 1347] ({CH2CO}-[Orn]YDWV[Bip][Cit][NMeA][dL][Dab]LVTCA-NH2; thioether N-14): the concentration for half-maximal inhibition (IC50) amounted to 0.03 µM.

As to `C=CCOc1ccc(C[C@@H]2NC(=O)[C@H](Cc3ccccc3)NC(=O)CSC[C@@H](C(=O)N[C@@H](C)C(N)=O)NC(=O)[C@H]([C@@H](C)O)NC(=O)[C@H](C(C)C)NC(=O)[C@H](CC(C)C)NC(=O)[C@H](CCCNC(=N)N)NC(=O)[C@@H](CC(C)C)NC(=O)[C@H](C)N(C)C(=O)[C@H](CCCNC(=N)N)NC(=O)[C@H](Cc3ccc(-c4ccccc4)cc3)NC(=O)[C@H](C(C)C)NC(=O)[C@H](Cc3c[nH]c4ccccc34)NC(=O)[C@H](CC(=O)O)NC2=O)cc1` [Compound 1088] ({CH2CO}-FY(Allyl)DWV[Bip]R[NMeA][dL]RLVTCA-NH2; thioether N-14), the IC50 stood at 0.41 µM.

On to `CC(C)C[C@@H]1NC(=O)[C@H](Cc2c[nH]c3ccccc23)NC(=O)[C@H](CC(=O)O)NC(=O)[C@H](Cc2ccc(O)cc2)NC(=O)[C@H](Cc2ccccc2)NC(=O)CSC[C@@H](C(=O)N[C@@H](C)C(N)=O)NC(=O)[C@H](CO)NC(=O)[C@H](C(C)C)NC(=O)[C@H](CC(C)C)NC(=O)[C@H](CC(N)=O)NC(=O)[C@@H](C)NC(=O)[C@H](C)N(C)C(=O)[C@H](C(C)C)NC(=O)[C@H](Cc2ccc(-c3cccc(F)c3)cc2)NC1=O` [Compound 1759] ({CH2CO}-FYDWL[X35]V[NMeA][dA]NLVSCA-NH2; thioether N-14), for which the concentration for half-maximal inhibition (IC50) is 0.03 µM.

In the case of `CC(C)C[C@@H]1NC(=O)[C@H](CCCNC(=N)N)NC(=O)[C@H](Cc2csc3ccccc23)NC(=O)[C@H](C)N(C)C(=O)[C@H](CCCNC(=N)N)NC(=O)[C@H](Cc2ccc(-c3ccccc3)cc2)NC(=O)[C@H](C(C)C)NC(=O)[C@H](Cc2c[nH]c3ccccc23)NC(=O)[C@H](CC(=O)O)NC(=O)[C@H](Cc2ccc(O)cc2)NC(=O)[C@H](CC(N)=O)NC(=O)CSC[C@@H](C(=O)N[C@@H](C)C(N)=O)NC(=O)[C@H](CO)NC(=O)[C@H](C(C)C)NC1=O` [Compound 1055] ({CH2CO}-NYDWV[Bip]R[NMeA][Bta]RLVSCA-NH2; thioether N-14), the IC50 amounted to 0.11 µM.

Turning to `CCC(C)[C@@H]1NC(=O)[C@H](Cc2ccc(-c3ccccc3)cc2)NC(=O)[C@H](CC(C)C)NC(=O)[C@H](Cc2c[nH]c3ccccc23)NC(=O)[C@H](CC(=O)O)NC(=O)[C@H](Cc2ccc(C(=O)O)cc2)NC(=O)[C@H](Cc2ccc(OCC(=O)O)cc2)NC(=O)CSC[C@@H](C(=O)N[C@@H](CO)C(N)=O)NC(=O)[C@H](CO)NC(=O)[C@H](C(C)C)NC(=O)[C@H](CC2CCCCC2)NC(=O)[C@H](CCN)NC(=O)[C@@H](CC(C)C)NC(=O)[C@H](C)N(C)C1=O` (stereo partly drawn) [Compound 1929] ({CH2CO}-Y(Carboxymethyl)[Phe(4-COOH)]DWL[Bip][Ile(3ξ)][NMeA][dL][Dab][Cha]VSCS-NH2; thioether N-14), the 50% inhibitory concentration (IC50) was found to be 0.02 µM.

Turning to `CC(C)C[C@@H]1NC(=O)[C@H](CCCNC(=N)N)NC(=O)[C@@H](CC(C)C)NC(=O)[C@H](C)N(C)C(=O)[C@H](CCCNC(=N)N)NC(=O)[C@H](Cc2ccc(I)cc2)NC(=O)[C@H](C(C)C)NC(=O)[C@H](Cc2c[nH]c3ccccc23)NC(=O)[C@H](CC(=O)O)NC(=O)[C@H](Cc2ccc(O)cc2)NC(=O)[C@H](Cc2ccccc2)NC(=O)CSC[C@@H](C(=O)N[C@@H](C)C(N)=O)NC(=O)[C@H]([C@@H](C)O)NC(=O)[C@H](C(C)C)NC1=O` [Compound 1089] ({CH2CO}-FYDWV[Phe(4-I)]R[NMeA][dL]RLVTCA-NH2; thioether N-14), the IC50 was 0.94 µM.

For `CC(C)C[C@H]1NC(=O)[C@H](C)N(C)C(=O)[C@H](C(C)C)NC(=O)[C@H](Cc2ccc(-c3ccccc3)cc2)NC(=O)[C@H](C(C)C)NC(=O)[C@H](Cc2c[nH]c3ccccc23)NC(=O)[C@H](CC(=O)O)NC(=O)[C@H](Cc2ccncc2)NC(=O)[C@H](Cc2ccc(OCC(=O)O)cc2)NC(=O)CSC[C@@H](C(N)=O)NC(=O)[C@H](CO)NC(=O)[C@H](C(C)C)NC(=O)[C@H](CC2CCCCC2)NC(=O)[C@H](CCCCN)NC1=O` [Compound 2245] ({CH2CO}-Y(Carboxymethyl)[4Pal]DWV[Bip]V[NMeA][dL]K[Cha]VSC-NH2; thioether N-14), the 50% inhibitory concentration (IC50) worked out at 0.01 µM.

`CCC(C)[C@@H]1NC(=O)[C@H](Cc2ccc(-c3ccccc3)cc2)NC(=O)[C@H](CC(C)C)NC(=O)[C@H](Cc2c[nH]c3ccccc23)NC(=O)[C@H](CC(=O)O)NC(=O)[C@H](Cc2ccc(C(=O)O)cc2)NC(=O)[C@H](Cc2ccc(OCC(=O)O)cc2)NC(=O)CSC[C@@H](C(=O)N[C@@H](CC(N)=O)C(N)=O)NC(=O)[C@H](CCC(N)=O)NC(=O)[C@H](C(C)C)NC(=O)[C@H](CC2CCCCC2)NC(=O)[C@H](CCN)NC(=O)[C@@H](CC(C)C)NC(=O)[C@H](C)N(C)C1=O` (stereo partly drawn) [Compound 1925] ({CH2CO}-Y(Carboxymethyl)[Phe(4-COOH)]DWL[Bip][Ile(3ξ)][NMeA][dL][Dab][Cha]VQCN-NH2; thioether N-14): the half-maximal inhibitory concentration (IC50) stood at 0.03 µM.

The term IC50 denotes the point on the concentration scale where inhibition reaches its midpoint.

Source of the values: patent publication US20240409585A1, “MACROCYCLIC IMMUNOMODULATORS” (priority 2021, published 2024).
